Where two headings read alike, the source gives them in different places.
How the values were obtained:
[1] = target: AM2 S31N (serine→asparagine mutation at residue 31 in the M2 protein) (Influenza A virus, UniProt P0DOF5, S31N); type: cell-based, influenza virus A/Udorn/72
[2] = target: AM2 V27A (valine→alanine mutation at residue 27 in the M2 protein) (Influenza A virus, UniProt P0DOF5, V27A); type: cell-based, influenza virus A/Udorn/72

SMILES	S31N OOcyte Inhibition at 100 uM (%) ([1]; pH 5.5)	S31N OOcyte Inhibition at 100 uM (%) [1]	further results
CSc1ccc(CNC23CC4CC(CC(C4)C2)C3)c(SC)c1 [Example 55, Adamantan-1-yl-(2,4-bis-methylsulfanyl-benzyl)-amine]	B (key: (A)=31-95%; (B)=0-30%)	–	V27A OOcyte Inhibition at 100 uM (%) ([2]; pH 5.5): B (key: (A)=31-95%; (B)=0-30%)
Oc1ccc(CNC23CC4CC(CC(C4)C2)C3)cc1F [Example 48, 4-(Adamantan-1-ylaminomethyl)-2-fluoro-phenol]	A (key: (A)=31-95%; (B)=0-30%)	–	V27A OOcyte Inhibition at 100 uM (%) ([2]; pH 5.5): A (key: (A)=31-95%; (B)=0-30%)
CC(NC1C2CC3CC(C2)CC1C3)c1ccc(O)cc1O (stereo not shown) [Example 102, 4-[1-(Adamantan-2-ylamino)-ethyl]-benzene-1,3-diol]	B (key: (A)=31-95%; (B)=0-30%)	–	V27A OOcyte Inhibition at 100 uM (%) ([2]; pH 5.5): A (key: (A)=31-95%; (B)=0-30%)
Oc1cc(OCc2ccccc2)ccc1CNC12CC3CC(CC(C3)C1)C2 [Example 57, 2-(Adamantan-1-ylaminomethyl)-5-benzyloxy-phenol]	A (key: (A)=31-95%; (B)=0-30%)	–	V27A OOcyte Inhibition at 100 uM (%) ([2]; pH 5.5): B (key: (A)=31-95%; (B)=0-30%)
COc1ccc(-c2nnc(CNC34CC5CC(CC(C5)C3)C4)o2)cc1 [Example 127a, N-((5-(4-methoxyphenyl)-1,3,4-oxadiazol-2-yl)methyl)adamantan-1-amine]	–	A (key: (A)=31-95%; (B)=0-30%)	V27A OOcyte Inhibition at 100 uM (%) [2]: B (key: (A)=31-95%; (B)=0-30%)
COc1cc(O)ccc1CNC12CC3CC(CC(C3)C1)C2 [Example 56, 4-(Adamantan-1-ylaminomethyl)-3-methoxy-phenol]	B (key: (A)=31-95%; (B)=0-30%)	–	V27A OOcyte Inhibition at 100 uM (%) ([2]; pH 5.5): B (key: (A)=31-95%; (B)=0-30%)
c1csc(-c2ccc(CNC3C4CC5CC(C4)CC3C5)s2)c1 (stereo not shown) [Example 205a, N-([2,2′-bithiophen]-5-ylmethyl)adamantan-2-amine]	–	A (key: (A)=31-95%; (B)=0-30%)	V27A OOcyte Inhibition at 100 uM (%) [2]: B (key: (A)=31-95%; (B)=0-30%)
Oc1ccc(CNC2C3CC4CC(C3)CC2C4)c(O)c1 (stereo not shown) [Example 100, 4-(Adamantan-2-ylaminomethyl)-benzene-1,3-diol]	B (key: (A)=31-95%; (B)=0-30%)	–	V27A OOcyte Inhibition at 100 uM (%) ([2]; pH 5.5): A (key: (A)=31-95%; (B)=0-30%)
Oc1ccc(CNC23CC4CC(CC(C4)C2)C3)c(O)c1 [Example 46, 4-(Adamantan-1-ylaminomethyl)-benzene-1,3-diol]	A (key: (A)=31-95%; (B)=0-30%)	–	V27A OOcyte Inhibition at 100 uM (%) ([2]; pH 5.5): A (key: (A)=31-95%; (B)=0-30%)
CC(C)(C)C1CCC(NCc2ccc(O)cc2O)CC1 (stereo not shown) [Example 109, 4-[(4-tert-Butyl-cyclohexylamino)-methyl]-benzene-1,3-diol]	B (key: (A)=31-95%; (B)=0-30%)	–	V27A OOcyte Inhibition at 100 uM (%) ([2]; pH 5.5): A (key: (A)=31-95%; (B)=0-30%)
COc1ccc(CN(C)C23CC4CC(CC(C4)C2)C3)cc1 [Example 32, Adamantan-1-yl-(4-methoxy-benzyl)-methyl-amine]	B (key: (A)=31-95%; (B)=0-30%)	–	V27A OOcyte Inhibition at 100 uM (%) ([2]; pH 5.5): B (key: (A)=31-95%; (B)=0-30%)
Cc1ccsc1CNC12CC3CC(CC(C3)C1)C2 [Example 76a, N-((3-methylthiophen-2-yl)methyl)adamantan-1-amine]	–	B (key: (A)=31-95%; (B)=0-30%)	V27A OOcyte Inhibition at 100 uM (%) [2]: B (key: (A)=31-95%; (B)=0-30%)
c1csc(-c2ncc(CNC34CC5CC(CC(C5)C3)C4)cn2)c1 [Example 61a, N-((2-(thiophen-2-yl)pyrimidin-5-yl)methyl)adamantan-1-amine]	–	A (key: (A)=31-95%; (B)=0-30%)	V27A OOcyte Inhibition at 100 uM (%) [2]: B (key: (A)=31-95%; (B)=0-30%)
CCOc1ccc(CNC23CC4CC(CC(C4)C2)C3)cc1 [Example 20, Adamantan-1-yl-(4-ethoxy-benzyl)-amine]	A (key: (A)=31-95%; (B)=0-30%)	–	V27A OOcyte Inhibition at 100 uM (%) ([2]; pH 5.5): B (key: (A)=31-95%; (B)=0-30%)
O=c1[nH]cc(CNC23CC4CC(CC(C4)C2)C3)c(=O)[nH]1 [Example 169a, 5-((adamantan-1-ylamino)methyl)pyrimidine-2,4(1H,3H)-dione]	–	B (key: (A)=31-95%; (B)=0-30%)	V27A OOcyte Inhibition at 100 uM (%) [2]: B (key: (A)=31-95%; (B)=0-30%)
c1cn(-c2ccc(CNC34CC5CC(CC(C5)C3)C4)s2)cn1 [Example 161a, N-((5-(1H-imidazol-1-yl)thiophen-2-yl)methyl)adamantan-1-amine]	–	B (key: (A)=31-95%; (B)=0-30%)	–
Cc1csc(CNC23CC4CC(CC(C4)C2)C3)n1 [Example 68b, Adamantan-1-yl-(4-methyl-thiazol-2-ylmethyl)-amine]	A (key: (A)=31-95%; (B)=0-30%)	–	–
Oc1ccc(CNC23CC4CC(CC(O)(C4)C2)C3)c(O)c1 [Example 196a, 4-[(3-Hydroxy-adamantan-1-ylamino)-methyl]-benzene-1,3-diol]	–	A (key: (A)=31-95%; (B)=0-30%)	–
CSc1ccc(-c2cc(CNC34CC5CC(CC3C5)C4)no2)cc1 [Example 90b, (2R,3as,5S,6as)-N-((5-(4-(methylthio)phenyl)isoxazol-3-yl)methyl)octahydro-2,5-methanopentalen-3a-amine]	A (key: (A)=31-95%; (B)=0-30%)	–	–
c1csc(-c2noc(CNC34CC5CC(CC(C5)C3)C4)n2)c1 [Example 148a, N-((3-(thiophen-2-yl)-1,2,4-oxadiazol-5-yl)methyl)adamantan-1-amine]	–	A (key: (A)=31-95%; (B)=0-30%)	–

SMILES	S31N OOcyte Inhibition at 100 uM (%) ([1]; pH 5.5)	S31N OOcyte Inhibition at 100 uM (%) [1]	further results
Clc1ccccc1-c1ccc(CNC23CC4CC(CC(C4)C2)C3)nc1 [Example 72b, Adamantan-1-yl-[5-(2-chloro-phenyl)-pyridin-2-ylmethyl]-amine]	A (key: (A)=31-95%; (B)=0-30%)	–	–
O=C(CNC12CC3CC(CC(C3)C1)C2)c1cccs1 [Example 87b, 2-(adamantan-1-ylamino)-1-(thiophen-2-yl)ethanone]	B (key: (A)=31-95%; (B)=0-30%)	–	–
c1csc(-c2ccc(CNC34CC5CC(CC(C5)C3)C4)nc2)c1 [Example 55a, Adamantan-1-yl-(5-thiophen-2-yl-pyridin-2-ylmethyl)-amine]	–	A (key: (A)=31-95%; (B)=0-30%)	–
Brc1ccsc1CNC12CC3CC(CC(C3)C1)C2 [Example 47b, N-((3-Bromothiophen-2-yl)methyl)adamantan-1-amine]	B (key: (A)=31-95%; (B)=0-30%)	–	–
c1csc(-c2nnc(CNC34CC5CC(CC(C5)C3)C4)o2)c1 [Example 147a, Adamantan-1-yl-(5-thiophen-2-yl-[1,3,4]oxadiazol-2-ylmethyl)-amine]	–	A (key: (A)=31-95%; (B)=0-30%)	–
Cc1ncc(CNC23CC4CC(CC(C4)C2)C3)s1 [Example 16b, N-((2-methylthiazol-5-yl)methyl)adamantan-1-amine]	B (key: (A)=31-95%; (B)=0-30%)	–	–
c1nc(CNC23CC4CC(CC(C4)C2)C3)sc1C1CC1 [Example 65b, Adamantan-1-yl-(5-cyclopropyl-thiazol-2-ylmethyl)-amine]	A (key: (A)=31-95%; (B)=0-30%)	–	–
CSc1ccc(-c2cc(CNC34CC5CCC(CC(C5)C3)C4)no2)cc1 [Example 91b, (1S,3R,8S)—N-((5-(4-(methylthio)phenyl)isoxazol-3-yl)methyl)tricyclo[4.3.1.13,8]undecan-1-amine]	A (key: (A)=31-95%; (B)=0-30%)	–	–
c1csc(-c2nnc(CNC34CC5CC(CC(C5)C3)C4)s2)c1 [Example 151a, N-((5-(thiophen-2-yl)-1,3,4-thiadiazol-2-yl)methyl)adamantan-1-amine]	–	A (key: (A)=31-95%; (B)=0-30%)	–
Cc1ccc(CNC23CC4CC(CC(C4)C2)C3)o1 [Example 67a]	–	A (key: (A)=31-95%; (B)=0-30%)	–
Cc1ncc(CN(Cc2cnc(C)s2)C23CC4CC(CC(C4)C2)C3)s1 [Example 202a, N,N-bis((2-methylthiazol-5-yl)methyl)adamantan-1-amine]	–	B (key: (A)=31-95%; (B)=0-30%)	–
c1c(CNC23CC4CC(CC(C4)C2)C3)noc1C1CCCCC1 [Example 32b, N-((5-cyclohexylisoxazol-3-yl)methyl)adamantan-1-amine]	A (key: (A)=31-95%; (B)=0-30%)	–	–
c1ccc(-c2nc(CNC34CC5CC(CC(C5)C3)C4)no2)cc1 [Example 131a, N-((5-phenyl-1,2,4-oxadiazol-3-yl)methyl)adamantan-1-amine]	–	A (key: (A)=31-95%; (B)=0-30%)	–
c1cc2[nH]c(CNC34CC5CC(CC(C5)C3)C4)cc2o1 [Example 78b, Adamantan-1-yl-(4H-furo[3,2-b]pyrrol-5-ylmethyl)-amine]	A (key: (A)=31-95%; (B)=0-30%)	–	–
Cc1nnc(CNC23CC4CC(CC(C4)C2)C3)o1 [Example 17b, N-((5-methyl-1,3,4-oxadiazol-2-yl)methyl)adamantan-1-amine]	A (key: (A)=31-95%; (B)=0-30%)	–	–
COc1cccc(-c2cc(CNC34CC5CC(CC(C5)C3)C4)no2)c1 [Example 39b, N-((5-(3-methoxyphenyl)isoxazol-3-yl)methyl)adamantan-1-amine]	A (key: (A)=31-95%; (B)=0-30%)	–	–
c1cn(-c2ccc(CNC34CC5CC(CC(C5)C3)C4)cc2)cn1 [Example 36a, N-(4-(1H-imidazol-1-yl)benzyl)adamantan-1-amine]	–	26.9%	–
c1cc2nc(CNC34CC5CC(CC(C5)C3)C4)sc2s1 [Example 77b, Adamantan-1-yl-thieno[3,2-d]thiazol-2-ylmethyl-amine]	A (key: (A)=31-95%; (B)=0-30%)	–	–
Ic1ccc(CNC23CC4CC(CC(C4)C2)C3)s1 [Example 91a, N-((5-Iodothiophen-2-yl)methyl)adamantan-1-amine]	–	A (key: (A)=31-95%; (B)=0-30%)	–
COc1ccc(-c2noc(CNC34CC5CC(CC(C5)C3)C4)n2)cc1OC [Example 35b, N-((3-(3,4-dimethoxyphenyl)-1,2,4-oxadiazol-5-yl)methyl)adamantan-1-amine]	A (key: (A)=31-95%; (B)=0-30%)	–	–
